Article PMC7293822 (ACS chemical biology, 2018)
Numbered stars: 1 amine (or outer) side, 2 acyl side, 3 side chain; on linkers, the order of the positions; unused ones are H or OH. Ends that are not written are not given here. Peptide text beside a SMILES is read from it. * marks the point of attachment. Glutaryl = O=C(CCCC(=O)[*:2])[*:1]; AMC = Cc1cc(=O)oc2cc(N*)ccc12

Experiments:
Pd_dinase [1] = assay: Antimicrobial peptide digestion by Pd_dinase, LC-MS/MS; type: in vitro ADME, Parabacteroidetes distasonis
trypsin = assay: bovine trypsin; settings: up to 30 min
Pd_dinase [2] = assay: Pd_dinase; settings: Parabacteroidetes distasonis, up to 30 min
Pd_dinase [3] = assay: Inhibition of Pd_dinase by peptide-AOMK inhibitors; type: biochemical, Parabacteroidetes distasonis; settings: 50 μM inhibitor, 2 nM Pd_dinase, 50 μM substrate, activity monitored for 4 h
aminopeptidase B = assay: human aminopeptidase B; settings: up to 30 min
bovine trypsin = target: T1, bovine trypsin (Bos taurus, UniProt P00760); assay: Fluorescent protease assay with AMC substrates, trypsin; type: biochemical; settings: 100 nM bovine trypsin, 50 μM substrate, 30 min, D-PBS, 2 mM DTT
T1 sequence (P00760 24-246): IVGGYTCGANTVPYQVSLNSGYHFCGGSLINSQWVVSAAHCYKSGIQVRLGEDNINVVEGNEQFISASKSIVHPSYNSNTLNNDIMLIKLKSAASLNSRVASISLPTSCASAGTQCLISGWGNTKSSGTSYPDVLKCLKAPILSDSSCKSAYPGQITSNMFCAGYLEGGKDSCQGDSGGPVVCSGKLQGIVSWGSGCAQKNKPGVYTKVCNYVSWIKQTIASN

Pd_dinase [4] = assay: Fluorescent protease assay with AMC substrates, Pd_dinase; type: biochemical, Parabacteroidetes distasonis; settings: 8 nM Pd_dinase, 50 μM substrate, 30 min, D-PBS, 2 mM DTT
human aminopeptidase B = human aminopeptidase B (Homo sapiens, UniProt Q9H4A4); assay: Fluorescent protease assay with AMC substrates, aminopeptidase B; type: biochemical; settings: 2 nM human aminopeptidase B, 50 μM substrate, 30 min, D-PBS, 2 mM DTT
Pd_dinase [5] = assay: 10 nM of Pd_dinase incubated with each antimicrobial peptide; settings: Parabacteroidetes distasonis, up to 1200 min
E. coli = settings: cited from earlier work
Pseudomonas aeruginosa = settings: cited from earlier work
Streptococcus pyogenes = settings: cited from earlier work
Staphylococcus aureus = settings: cited from earlier work

Chain of human aminopeptidase B (Q9H4A4 whole entry): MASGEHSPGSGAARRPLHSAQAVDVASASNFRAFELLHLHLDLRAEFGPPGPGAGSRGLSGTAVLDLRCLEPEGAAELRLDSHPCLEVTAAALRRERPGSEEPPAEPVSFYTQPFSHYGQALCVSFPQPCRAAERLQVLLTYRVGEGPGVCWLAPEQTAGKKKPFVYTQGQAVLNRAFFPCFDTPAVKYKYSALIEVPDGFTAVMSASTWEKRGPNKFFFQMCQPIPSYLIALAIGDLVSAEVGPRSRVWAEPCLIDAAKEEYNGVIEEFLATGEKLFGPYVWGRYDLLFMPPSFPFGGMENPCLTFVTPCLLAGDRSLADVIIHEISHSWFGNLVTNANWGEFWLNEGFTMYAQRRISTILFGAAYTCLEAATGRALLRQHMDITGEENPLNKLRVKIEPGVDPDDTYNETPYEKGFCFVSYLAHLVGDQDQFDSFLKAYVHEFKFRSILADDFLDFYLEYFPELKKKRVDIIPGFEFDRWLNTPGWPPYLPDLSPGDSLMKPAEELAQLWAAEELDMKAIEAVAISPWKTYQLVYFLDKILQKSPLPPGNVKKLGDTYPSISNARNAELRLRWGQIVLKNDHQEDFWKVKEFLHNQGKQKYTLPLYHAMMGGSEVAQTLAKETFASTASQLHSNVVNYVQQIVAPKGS

Molecule: AIGGGLSSVGGGS [KAMP-13]
- metabolised at 20 h, 5 μM (Pd_dinase [1]; Parabacteroidetes distasonis, isolated protease Pd dinase (10 nM)): 15.5%

Molecule: NH2-arginine-AMC
- not cleaved (trypsin): failed to hydrolyze Arg-AMC
- not cleaved (Pd_dinase [2]): does not cleave Arg-AMC

Molecule: NH2-glycine-arginine-AOMK [Gly-Arg-AOMK]
- effect on Pd_dinase activity (Pd_dinase [3]): completely inhibited

Molecule: Glutaryl-Gly-Arg-{AMC}
- not cleaved (aminopeptidase B): aminopeptidase B only cleaved Arg-AMC
- not cleaved (Pd_dinase [2]): does not cleave Glt-Gly-Arg-AMC

Molecule: Glutaryl-Gly-Arg-{AMC} [Glt-Gly-Arg-AMC]
- rate of cleavage by trypsin relative to Gly-Arg-AMC (bovine trypsin): 80 fold
- cleavage of AMC substrate by Pd_dinase (Pd_dinase [4]): does not cleave

Molecule: H-Gly-Arg-{AMC}
- not cleaved (aminopeptidase B): aminopeptidase B only cleaved Arg-AMC

Molecule: Cc1cc(=O)oc2cc(NC(=O)[C@@H](N)CCCN=C(N)N)ccc12 [Arg-AMC, NH2-arginine-AMC]
- cleavage of AMC substrate by trypsin (bovine trypsin): failed to hydrolyze
- cleavage of AMC substrate by Pd_dinase (Pd_dinase [4]): does not cleave
- cleavage of AMC substrate by aminopeptidase B (human aminopeptidase B): only cleaved

Molecule: H-AIGGGLSSVGGGS-OH
- cleaved bond (Pd_dinase [5]): Ile-G, minor
- fragment found (Pd_dinase [5]): 9-mer peptide

Molecule: GGLSSVGGGSSTIK [KAMP-14]
- bactericidal activity (E. coli): bactericidal
- bactericidal activity (Pseudomonas aeruginosa): bactericidal
- bactericidal activity (Streptococcus pyogenes): bactericidal
- bactericidal activity (Staphylococcus aureus): bactericidal
- degradation by Pd_dinase (Pd_dinase [1]; 10 nM Pd_dinase, 5 μM peptide, 5 to 1200 min, triplicate, LC-MS/MS): degraded into a 12-mer peptide

Molecule: Cc1cc(=O)oc2cc(NC(=O)[C@H](CCCNC(=N)N)NC(=O)CN)ccc12 [Gly-Arg-AMC, NH2-Gly-Arg-AMC] (H-Gly-Arg-{AMC})
- cleavage of AMC substrate by Pd_dinase (Pd_dinase [4]): rapidly hydrolyzes
